Experimental data: ChEMBL document CHEMBL1136035, “New Rev-transport inhibitor with anti-HIV activity from Valerianae Radix” (2002)

Test system: MT4
Assay: Antiviral activity was determined by measurement of HIV-p24 antigen production in the supernatants of the infected MT-4 cell cultures with acommercially available HIV-antigen kit.
Assay type: functional, Homo sapiens

## CC(=O)OCC1=CO[C@@H](OC(=O)CC(C)C)[C@H]2C1=C[C@H](OC(=O)CC(C)C)[C@]21CO1 [VALTRATE]
  Inhibition: 44%
